{"source": "patent US7704995B2", "about": "(Exelixis, Inc., priority 2003, dated 2010)", "key": {"[1]": {"biological_target": "T1, Chk2 (Homo sapiens, UniProt O96017)", "T1 construct": "purchased Upstate Biotechnology", "T1 sequence (O96017 whole entry)": "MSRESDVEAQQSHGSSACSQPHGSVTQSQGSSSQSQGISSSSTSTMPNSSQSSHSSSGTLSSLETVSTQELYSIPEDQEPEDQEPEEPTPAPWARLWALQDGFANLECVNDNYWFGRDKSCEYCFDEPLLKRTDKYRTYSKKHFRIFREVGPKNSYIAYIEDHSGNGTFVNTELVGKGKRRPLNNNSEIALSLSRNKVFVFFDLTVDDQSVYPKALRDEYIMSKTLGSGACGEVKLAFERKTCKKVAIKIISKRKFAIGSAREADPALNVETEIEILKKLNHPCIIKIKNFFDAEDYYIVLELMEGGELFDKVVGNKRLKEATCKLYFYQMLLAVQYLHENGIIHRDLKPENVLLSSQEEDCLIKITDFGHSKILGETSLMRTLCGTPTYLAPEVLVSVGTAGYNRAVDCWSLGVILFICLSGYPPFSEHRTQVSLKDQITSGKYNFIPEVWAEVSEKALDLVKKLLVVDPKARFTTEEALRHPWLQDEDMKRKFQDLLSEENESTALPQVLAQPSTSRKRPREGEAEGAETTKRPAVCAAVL", "assay": "Chk2 kinase assay: incorporation of γ-33P ATP into immobilized myelin basic protein", "format": "biochemical", "settings": "20 nM Chk2, 30 μM unlabeled ATP, 1 hour at room temperature; read-out: Chk2 inhibition, IC50", "description": "Chk1 and Chk2 assays were performed by measuring incorporation of γ-^33P ATP into immobilized myelin basic protein (MBP). High binding white 384 well plates (Greiner) were coated with MBP (Sigma #M-1891) by incubation of 60 ul/well of 20 μg/ml MBP in Tris-buffered saline (TBS; 50 mM Tris pH 8.0, 138 mM NaCl, 2.7 mM KCl) for 24 hours at 4° C. Plates were washed 3× with 100 μl TBS. Kinase reactions were carried out in a total volume of 34 μl in kinase buffer (5 mM Hepes pH 7.6, 15 mM NaCl, 0.01% bovine gamma globulin (Sigma #I-5506), 10 mM MgCl2, 1 mM DTT, 0.02% TritonX-100). Compound dilutions were performed in DMSO and added to assay wells to a final DMSO concentration of 1%. Each data point was measured in duplicate, and at least two duplicate assays were performed for each individual compound determination. […] A mixture of unlabeled ATP and γ-^33P ATP was added to start the reaction (2×10^6 cpm of γ-^33P ATP per well (3000 Ci/mmole) and either 10 μM or 30 μM unlabeled ATP (for Chk1 and Chk2 assays respectively). The reaction was carried out for 1 hour at room temperature with shaking. Plates were washed 7× with TBS, followed by the addition of 50 μl/well scintillation fluid (Wallac). Plates were read using a Wallac Trilux counter. This is only one format of such assays, various other formats are possible, as known to those skilled in the art. […]"}, "[2]": {"biological_target": "T2, Chk1 (Homo sapiens, UniProt O14757)", "T2 construct": "purchased Upstate Biotechnology", "T2 sequence (O14757 1-476)": "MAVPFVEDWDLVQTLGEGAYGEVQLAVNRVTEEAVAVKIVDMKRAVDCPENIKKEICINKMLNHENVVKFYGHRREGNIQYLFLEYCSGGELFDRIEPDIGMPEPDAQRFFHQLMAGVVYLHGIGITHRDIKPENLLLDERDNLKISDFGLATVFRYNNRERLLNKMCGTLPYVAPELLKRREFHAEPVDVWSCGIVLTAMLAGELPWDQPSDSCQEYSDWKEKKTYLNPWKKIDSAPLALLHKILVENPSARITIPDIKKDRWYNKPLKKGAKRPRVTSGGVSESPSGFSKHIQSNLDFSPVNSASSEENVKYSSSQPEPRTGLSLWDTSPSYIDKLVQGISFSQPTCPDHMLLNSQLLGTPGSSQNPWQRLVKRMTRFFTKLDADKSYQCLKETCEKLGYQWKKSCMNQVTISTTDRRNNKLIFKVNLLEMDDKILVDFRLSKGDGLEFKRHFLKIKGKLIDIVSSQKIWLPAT", "assay": "Chk1 kinase assay: incorporation of γ-33P ATP into immobilized myelin basic protein", "format": "biochemical", "settings": "10 nM Chk1, 10 μM unlabeled ATP, 1 hour at room temperature; read-out: Chk1 inhibition, IC50", "summary_of_the_method": "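Plates coated with MBP, then kinase reactions in Hepes pH 7.6 buffer with 10 mM MgCl2 and 1% DMSO were started by adding unlabeled plus γ-33P ATP (10 μM for Chk1 at 10 nM enzyme; 30 μM for Chk2 at 20 nM enzyme). After 1 h at room temperature, plates were washed and counted.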"}}, "data": [{"smiles": "NC(=O)c1nc(-c2cccc3ccccc23)cnc1N", "note": "[Example 2, 3-Amino-6-naphthalen-1-ylpyrazine-2-carboxamide]", "values": [{"measurement": "IC50", "setting": "[1]", "value": "< 50", "unit": "nM"}, {"measurement": "IC50", "setting": "[2]", "value": "< 50", "unit": "nM"}]}]}
